Where a name gives a salt, the structure may show the parent alone. Read-outs that look alike come from different tables or passages of the source.

Consider 25 compounds from patent publication US8691818B2, “Cyclic triazo and diazo sodium channel blockers” (University Of Greenwich, priority 2008, dated 2014).

For series [1], the target named is hERG (Homo sapiens, UniProt Q12809). Kind of series: hERG: inhibition of binding of [3H]astemizole to HEK-293 cells expressing human recombinant hERG. To be noted: for inhibition at 10 µM: human, probe [3H]astemizole.
Chain of hERG (Q12809 whole entry): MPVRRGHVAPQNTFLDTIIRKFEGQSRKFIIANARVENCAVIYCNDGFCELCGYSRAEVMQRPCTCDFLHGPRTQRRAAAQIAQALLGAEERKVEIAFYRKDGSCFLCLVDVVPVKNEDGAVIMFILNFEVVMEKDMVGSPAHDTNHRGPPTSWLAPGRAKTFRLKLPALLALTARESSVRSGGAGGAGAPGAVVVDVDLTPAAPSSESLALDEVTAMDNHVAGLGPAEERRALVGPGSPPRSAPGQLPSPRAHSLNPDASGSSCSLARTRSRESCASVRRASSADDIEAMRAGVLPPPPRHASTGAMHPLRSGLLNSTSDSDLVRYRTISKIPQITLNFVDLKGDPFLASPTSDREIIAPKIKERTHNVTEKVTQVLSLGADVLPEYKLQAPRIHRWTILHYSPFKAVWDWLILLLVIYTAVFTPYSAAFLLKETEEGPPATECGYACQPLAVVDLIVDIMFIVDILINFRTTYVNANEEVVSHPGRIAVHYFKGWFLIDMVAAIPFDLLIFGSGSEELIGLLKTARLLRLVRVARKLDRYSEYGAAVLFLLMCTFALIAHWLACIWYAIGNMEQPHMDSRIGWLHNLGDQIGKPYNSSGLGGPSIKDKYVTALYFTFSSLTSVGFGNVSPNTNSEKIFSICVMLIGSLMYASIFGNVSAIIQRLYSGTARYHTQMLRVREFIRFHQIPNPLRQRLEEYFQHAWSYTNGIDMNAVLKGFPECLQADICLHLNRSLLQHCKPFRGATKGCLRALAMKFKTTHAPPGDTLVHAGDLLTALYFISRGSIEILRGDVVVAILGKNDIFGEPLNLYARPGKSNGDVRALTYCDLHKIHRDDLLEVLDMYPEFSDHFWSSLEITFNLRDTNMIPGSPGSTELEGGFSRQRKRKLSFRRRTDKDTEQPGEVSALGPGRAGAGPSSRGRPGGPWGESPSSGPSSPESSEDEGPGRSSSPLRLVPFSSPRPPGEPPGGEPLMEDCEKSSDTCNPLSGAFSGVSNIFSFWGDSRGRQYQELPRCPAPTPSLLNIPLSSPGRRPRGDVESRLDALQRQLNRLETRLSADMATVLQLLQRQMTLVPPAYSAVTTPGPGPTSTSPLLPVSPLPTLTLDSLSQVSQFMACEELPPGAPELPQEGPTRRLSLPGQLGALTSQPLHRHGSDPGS
Series [2] concerns the target T1, DiHydroFolate Reductase (DHFR) (Rattus norvegicus, UniProt Q920D2).
T1 construct: from tissue; host or cells: rat liver homogenate supernatant
T1 sequence (Q920D2 1-187): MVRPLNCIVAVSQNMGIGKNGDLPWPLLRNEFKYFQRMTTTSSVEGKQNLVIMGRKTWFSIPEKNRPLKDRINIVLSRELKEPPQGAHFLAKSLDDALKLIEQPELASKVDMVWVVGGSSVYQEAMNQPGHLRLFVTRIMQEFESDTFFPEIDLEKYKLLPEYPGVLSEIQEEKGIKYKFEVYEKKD
Description: Inhibition of binding of [3H]methotrexate to rat liver homogenate supernatant. To be noted: 125 μM; for inhibition at 125 µM: read-out: [3H]mtx binding (% inhibition @ 125 μM). The method in brief: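 Displacement of [3H]methotrexate binding to rat liver homogenate supernatant, prepared at 4 °C in pH 6.0 phosphate buffer with 15 mM dithiothreitol. Values are mean±sem over the number of experiments shown.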

Series [3] deals with sodium channel. Kind of series: [14C]guanidine flux: veratrine-evoked uptake of [14C]guanidine into rat forebrain synaptosomes (primary sodium channel assay). It is filed as biochemical. The note with it: 30° for 2½ min. In a few lines: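 Synaptosomal fraction from male Wistar rat forebrain (without cerebellum/medulla), 20-25 mg wet weight/ml. Veratrine-evoked [14C]guanidine uptake at 30° for 2½ min across a compound concentration range; IC50 from concentration-effect curves, mean±sem.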

Series [4] has as its system Sodium Channel, Site 2. It is filed as binding, Wistar Rat. The note with it: for IC50: read-out: [3H]BTX-B binding Extrapolated IC50.

For the compound `Nc1nnc(C2c3ccccc3Oc3ccccc32)c(N)n1` [CEN-182, 3,5-Diamino-6-(9-xanthyl)-1,2,4-triazine], the melting point is 159 to 161 °C. For the same compound, in series [1], the IC50 was 90 µM and the inhibition at 10 µM turned out to be 10%. Also, in series [2], the inhibition at 125 µM was found to be 6%. Moreover, half-maximal inhibition in series [3] (IC50) required 214 µM.
In the case of `N=c1nc(N)c(-c2cc(C(F)(F)F)cc(Cl)c2F)nn1CC(F)(F)C(F)F.O=S(=O)(O)C(F)(F)F` [CEN-210, 5(3)-Amino-6-(3-chloro-2-fluoro-5-trifluoromethyphenyl)-2,3(2,5)-dihydro-3(5)-imino-2-(2,2,3,3-tetrafluoropropyl)-1,2,4-triazine trifluoromethanesulphonate], in series [4], the “[3H]BTX-B binding % inhibition (@ 10 μM)” value is 43% and the half-maximal inhibitory concentration (IC50) is 13 µM.
Taken in the same sequence, the figures for `Nc1nnc(C(c2ccc(Cl)cc2)c2ccc(Cl)cc2)c(N)n1` [CEN-213, 3,5-Diamino-6-[1,1 bis-(4-chlorophenyl)methyl]-1,2,4-triazine] were −2% and greater than 200 µM.
Turning to `CCn1nc(-c2cccc3ccccc23)c(N)nc1=N` [CEN-77, 5(3)-Amino-6-(1-naphthyl)-2,3(2,5)-dihydro-3(5)-imino-2-ethyl-1,2,4-triazine], the melting point is 191 to 193 °C. In series [1], the IC50 came to 18 µM and the inhibition at 10 µM stood at 36%. In addition, the inhibition at 125 µM in series [2] is -1%. The compound also registered a half-maximal inhibitory concentration (IC50) in series [3] of 14.5 µM.
Turning to `N=c1nc(N)c(-c2cc(C(F)(F)F)cc(Cl)c2F)nn1CC(F)(F)C(F)(F)F.O=S(=O)(O)C(F)(F)F` [CEN-211, 5(3)-Amino-6-(3-chloro-2-fluoro-5-trifluoromethyphenyl)-2,3(2,5)-dihydro-3(5)-imino-2-(2,2,3,3,3-pentafluoropropyl)-1,2,4-triazine trifluoromethanesulphonate], in series [4], the “[3H]BTX-B binding % inhibition (@ 10 μM)” value worked out at 106% and the IC50 was less than 0.5 µM.
On to `CCn1nc(-c2cc(F)c(F)cc2Cl)c(N)nc1=N.CS(=O)(=O)O` [CEN-205, 5(3)-Amino-6-(2-chloro-4,5-difluoro-5-phenyl)-2,3(2,5)-dihydro-3(5)-imino-2-ethyl-1,2,4-triazine mesylate], for which, in series [4], the “[3H]BTX-B binding % inhibition (@ 10 μM)” value came to 79% and the 50% inhibitory concentration (IC50) is 3 µM.
On to `Cn1nc(-c2cc(C(F)(F)F)cc(Cl)c2F)c(N)nc1=N` [CEN-202, 5(3)-Amino-6-(3-chloro-2-fluoro-5-trifluoromethyphenyl)-2,3(2,5)-dihydro-3(5)-imino-2-methyl-1,2,4-triazine mesylate], for which, in series [4], the “[3H]BTX-B binding % inhibition (@ 10 μM)” value was 90% and the IC50 was 1 µM.
On to `Cn1nc(-c2cccc3ccccc23)c(N)nc1=N` [CEN-78, 5(3)-Amino-6-(1-naphthyl)-2,3(2,5)-dihydro-3(5)-imino-2-methyl-1,2,4-triazine], for which the melting point lay in the range of 248 to 250 °C. Moreover, in series [1], the IC50 was 32 µM and the inhibition at 10 µM came out at 24%. In series [2], the inhibition at 125 µM turned out to be 9%. Further, the half-maximal inhibitory concentration (IC50) in series [3] turned out to be 102 µM.
Take `CC(C)C(c1ccccc1)c1nnc(N)nc1N` (stereo not shown) [CEN-201, 3,5-Diamino-6-(1-isopropyl-1-phenylmethy)-1,2,4-triazine]: in series [4], the “[3H]BTX-B binding % inhibition (@ 10 μM)” value turned out to be 3% and the IC50 is greater than 200 µM.
For `Cc1ccc(-c2nnc(N)nc2-c2ccc(C)cc2)cc1` [CEN-126, 3-Amino-5,6-bis(4-methylphenyl)-1,2,4-triazine], the melting point was in the range of 134 to 136 °C. For the same compound, in series [1], the IC50 is 3 µM and the inhibition at 10 µM was 79%. For the same compound, the inhibition at 125 µM in series [2] was -12%. This compound gave a 50% inhibitory concentration (IC50) in series [3] of 58.9 µM.
On to `CC(C)(Oc1ccc(Cl)cc1)c1nnc(N)nc1N` [CEN-215, 3,5-Diamino-6-{1-(4-chlorophenoxy)-1-methyl}ethyl-1,2,4-triazine tosylate], for which, in series [4], the “[3H]BTX-B binding % inhibition (@ 10 μM)” value is given as 22% and the IC50 was 35 µM.
As to `COc1ccc2cc(C(C)c3nnc(N)nc3N)ccc2c1` (stereo not shown) [CEN-165, 3,5-Diamino-6-[1-(6-methoxynaphthalene)ethy)-1,2,4-triazine], in series [1] (10 μM, [3H]astemizole binding), the “hERG % inhibition @ 10 μM” value came to 23%. Besides, the IC50 is 34 µM in series [1] (read-out: hERG IC50 (μM) (extrapolated from 10 μM inh'n), extrapolated assuming binding slope 1.0) and 372 µM in series [3]. Besides, in series [2], the “[3H]mtx binding (% inhibition @ 125 μM)” value is −4%.
As to `Cc1ccc(S(=O)(=O)O)cc1.Nc1nnc(-c2cc(C(F)(F)F)ccc2C(F)(F)F)c(N)n1` [CEN-198, 3,5-Diamino-6-[2,5-bis(trifluoromethyl)phenyl]-1,2,4-triazine tosylate], in series [4], the “[3H]BTX-B binding % inhibition (@ 10 μM)” value was found to be 23% and the half-inhibitory concentration (IC50) is 34 µM.
For the compound `Cn1nc(-c2cc(Cl)sc2Cl)c(N)nc1=N` [CEN-80, 5(3)-Amino-6-[3-(2,5-dichlorothienyl)]-2,3(2,5)-dihydro-3(5)-imino-2-methyl-1,2,4-triazine], the melting point was in the range of 286 to 288 °C. Also, in series [1], the IC50 was determined as 61 µM and the inhibition at 10 µM was 14%. The inhibition at 125 µM in series [2] was -1%. Moreover, the half-inhibitory concentration (IC50) in series [3] turned out to be 123 µM.
In the case of `CCn1nc(-c2cc(C(C)(C)C)cc(C(C)(C)C)c2)c(N)nc1=N` [CEN-189, 5(3)-Amino-6-(3,5 bis-tert-butylphenyl)-2,3(2,5)-dihydro-3(5)-imino-2-ethyl-1,2,4-triazine methanesulphonate], in series [1], the half-maximal inhibitory concentration (IC50) is 90 µM and the inhibition at 10 µM worked out at 10%. In addition, the inhibition at 125 µM in series [2] was 2%. This compound returned an IC50 in series [3] of 468 µM.
Turning to `Cn1nc(-c2ccccc2Oc2ccccc2)c(N)nc1=N` [CEN-105, 5(3)-Amino-6-(2-phenoxyphenyl)-2,3(2,5)-dihydro-3(5)-imino-2-methyl-1,2,4-triazine], the melting point lay within 164 to 166 °C. In series [1], the half-maximal inhibitory concentration (IC50) worked out at 19 µM and the inhibition at 10 µM came to 35%. For the same compound, the inhibition at 125 µM in series [2] stood at 86%. In series [3], this compound showed an IC50 of 100 µM.
Turning to `Cc1ccc(S(=O)(=O)O)cc1.Nc1nnc(-c2c(Cl)ccc(Cl)c2Cl)c(N)n1` [CEN-214, 3,5-Diamino-6-(2,3,6-trichlorophenyl)-1,2,4-triazine tosylate], in series [4], the “[3H]BTX-B binding % inhibition (@ 10 μM)” value is on record as 10% and the IC50 is 90 µM.
As for `Cn1nc(-c2ccc3c(c2)OC(F)(F)O3)c(N)nc1=N` [CEN-81, 5(3)-Amino-6-[5-(2,2-difluorobenzodioxolo)]-dihydro-3(5)-imino-2-methyl-1,2,4-triazine], the melting point was in the range of 297 to 298 °C. In addition, in series [1], the 50% inhibitory concentration (IC50) amounted to 49 µM and the inhibition at 10 µM is 17%. In addition, in series [2], the inhibition at 125 µM was -2%. This compound displayed an IC50 in series [3] of 251 µM.
Consider `COc1ccc(-c2nnc(N)nc2-c2ccc(OC)cc2)cc1` [CEN-127, 3-Amino-5,6-bis(4-methoxylphenyl)-1,2,4-triazine], for which the melting point was in the range of 179 to 181 °C. Moreover, in series [1], the IC50 is greater than 200 µM and the inhibition at 10 µM was 2%. The inhibition at 125 µM in series [2] is -24%. Besides, in series [3], 85.1 µM corresponded to half-maximal inhibition (IC50).
On to `Cn1nc(-c2cccc3c2CCCC3)c(N)nc1=N` [CEN-120, 5(3)-Amino-6-[1-(5,6,7,8-tetrahydronaphthyl)]-2,3(2,5)-dihydro-3(5)-imino-2-methyl-1,2,4-triazine methanesulfonate], for which the IC50 in series [1] is 157 µM; in series [3], 195 µM. For the same compound, the inhibition at 10 µM in series [1] came to 6%. For the same compound, in series [2], the inhibition at 125 µM amounted to 18%.
`Nc1nnc(-c2cccc3c2-c2ccccc2C3)c(N)n1` [CEN-129] yielded a melting point of 240 to 242 °C. In series [1], the IC50 is 133 µM and the inhibition at 10 µM was determined as 7%. For the same compound, in series [2], the inhibition at 125 µM is -3%. This compound also had an IC50 in series [3] of 190 µM.
`Nc1ncc(-c2cccc(Cl)c2Cl)c(N)n1` [CEN-41, 2,4-Diamino-5-(2,3-dichlorophenyl)pyrimidine] had a melting point of 289 to 291 °C. In addition, in series [1], the IC50 is greater than 200 µM and the inhibition at 10 µM is -3%. Further, the inhibition at 125 µM in series [2] stood at 76%. Moreover, it took 60.3 µM to reach half-maximal inhibition in series [3] (IC50).
For the compound `Cn1nc(-c2ccc3ccccc3c2)c(N)nc1=N` [CEN-76, 5(3)-Amino-6-(2-naphthyl)-2,3(2,5)-dihydro-3(5)-imino-2-methyl-1,2,4-triazine methanesulfonate], in series [1], the IC50 turned out to be 4 µM and the inhibition at 10 µM was determined as 74%. The inhibition at 125 µM in series [2] came to 6%. Besides, in series [3], inhibition was half-maximal at 77.6 µM (IC50).
As to `Cn1nc(-c2cccc(C(F)(F)F)c2Cl)c(N)nc1=N` [CEN-177, 5(3)-Amino-6-(2-chloro-3-trifluoromethyphenyl)-2,3(2,5)-dihydro-3(5)-imino-2-methyl-1,2,4-triazine], the melting point lay in the range of 205 to 207 °C. Also, in series [1], the IC50 is 35 µM and the inhibition at 10 µM was determined as 22%. Moreover, in series [2], the inhibition at 125 µM came to 16%. The compound further yielded a half-maximal inhibitory concentration (IC50) in series [3] of 14 µM.
Taken in the same sequence, the figures for `Nc1nnc(-c2ccc(Oc3ccccc3)cc2)c(N)n1` [CEN-93, 3,5-Diamino-6-(4-phenoxphenyl)-1,2,4-triazine] were 266 to 267 °C, 19 µM, 35%, 4% and 63.1 µM.
